What was measured:
[1] = Selective index, ratio of CC50 for human MT4 cells to EC50 for HIV1 3B
[2] = Cytotoxicity against human MT4 cells as reduction in cell viability after 5 days by MTT assay; type: cell-based

| SMILES | Ratio CC50/EC50 [1] | CC50 at 120 h [2] [µM] |
| --- | --- | --- |
| CC(C)Nc1cccnc1N1CCN(C(=O)c2cc3cc(NS(C)(=O)=O)ccc3[nH]2)CC1 [DELAVIRDINE] | >12 | > 3.83 |
| Cc1ccnc2c1NC(=O)c1cccnc1N2C1CC1 [NEVIRAPINE] | – | > 15 |
| Cc1cn([C@H]2C[C@H](N=[N+]=[N-])[C@@H](CO)O2)c(=O)[nH]c1=O [ZIDOVUDINE] | >6192 | > 93.5 |
| O=C1Nc2ccc(Cl)cc2[C@@](C#CC2CC2)(C(F)(F)F)O1 [EFAVIRENZ] | >1434 | > 6.34 |

Reference: ChEMBL document CHEMBL1155290, “Synthesis and anti-HIV activity evaluation of 2-(4-(naphthalen-2-yl)-1,2,3-thiadiazol-5-ylthio)-N-acetamides as novel non-nucleoside HIV-1 reverse transcriptase inhibitors” (Eur J Med Chem, 2009)
